T1: human CCR1 (Homo sapiens, UniProt P32246)
T1 sequence (P32246 1-355): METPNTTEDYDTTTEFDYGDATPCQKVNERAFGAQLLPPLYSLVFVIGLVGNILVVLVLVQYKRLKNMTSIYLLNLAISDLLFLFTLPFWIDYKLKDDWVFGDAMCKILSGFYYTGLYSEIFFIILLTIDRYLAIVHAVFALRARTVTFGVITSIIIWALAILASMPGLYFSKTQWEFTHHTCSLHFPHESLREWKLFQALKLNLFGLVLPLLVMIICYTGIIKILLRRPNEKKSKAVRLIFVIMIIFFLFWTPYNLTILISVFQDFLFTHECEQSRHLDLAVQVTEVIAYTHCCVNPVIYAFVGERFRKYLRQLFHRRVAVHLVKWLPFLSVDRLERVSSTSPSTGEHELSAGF

B1: MIP-1β: human chemokine that binds human CCR1 with low affinity (protein, UniProt P13236 24-92, looked up)
C-C motif chemokine 4: APMGSDPPTACCFSYTARKLPRNFVVDYYETSSLCSQPAVVFQTKRSKQVCADPSESWVQEYVYDLELN

Experiments:
[1] = target: T1, human CCR1; assay: In vitro assay for CCR1 receptor antagonists: competition with 125I-MIP-1α or 125I-RANTES on 293MR cells; assay type: binding; design: expressed in transfected cells; details: Table 2
Procedure: Human CCR1 cDNA was provided through collaboration with Dr. Stephen Peiper of the University of Louisville, Ky. […] The plasmid also contained hygromycin and puromycin resistance genes. Calcium phosphate transfection standard protocols were used to insert the plasmid into the HEK293 cells. Cells were selected for stable expression of CCR1 using hygromycin and puromycin selection.
• 130 mM NaCl, 5 mM KCl, 1 mM MnCl2, 50 mM Tris, 30 μg/ml bacitracin, 0.1% BSA, pH 7.4.
The stock solution of the compounds was 1 mM in 100% DMSO. […] A serial 1:3 dilution from the highest concentration was made with assay buffer. Six concentrations of each compound were usually being screened to generate a dose curve from which the Ki value was determined.
Assays were performed in 96-well v-bottom microtiter plates in a total volume of 100 μl. […] The cells were washed once in PBS and resuspended in the assay buffer to about 1.1×10^5 cells/mL.
The radioactivities in each well were determined by scintillation counting following addition of 50 μl of scintillation fluid.
The nonspecific binding was defined by the binding in the presence of 100 nM of unlabeled MIP-1α or RANTES.
The dose curves of each compound with 6 concentration points were generated and IC50 values were determined by fitting the data to the log-logit equation (linear) with an EXCEL spread-sheet.

[2] = target: T1, human CCR1; details: result in words; cited from earlier work

Molecule	Ki [1]	signalling through human CCR1 [2]
CC(O)C1CN(Cc2ccc(F)cc2)CCN1C(=O)COc1ccc(Cl)cc1 (stereo not drawn) [compound 35]	13 nM	
C[C@@H]1CN(C(=O)COc2ccc(Cl)cc2NCc2ccccc2)[C@@H](C)CN1Cc1ccc(F)cc1 [compound 17]	42 nM	
CC(C)C(=O)Nc1cc(Cl)ccc1OCC(=O)N1C[C@@H](C)N(Cc2ccc(F)cc2)C[C@@H]1C [compound 21]	13 nM	
C[C@@H]1CN(C(=O)COc2cccc(C#N)c2)[C@@H](C)CN1Cc1ccc(F)cc1 [compound 32]	68 nM	
C[C@@H]1CN(C(=O)COc2ccc(Cl)cc2C(N)=O)[C@@H](C)CN1Cc1ccc(F)cc1 [compound 47]	3 nM	
COC(=O)CCC(=O)Nc1cc(Cl)ccc1OCC(=O)N1C[C@@H](C)N(Cc2ccc(F)cc2)C[C@@H]1C [compound 23]	5 nM	
CC(c1cc(Cl)ccc1OCC(=O)N1C[C@@H](C)N(Cc2ccc(F)cc2)C[C@@H]1C)n1ccnc1 (stereo partly drawn) [compound 29]	6 nM	
CC1CN(C(=O)COc2ccc(Cl)cc2N)C(C)CN1Cc1ccc(F)cc1 (stereo not drawn) [compound 15]	9 nM	
CC(=O)Nc1cc(Cl)ccc1OCC(=O)N1CCN(Cc2ccc(F)cc2)CC1C (stereo not drawn) [compound 19]	5 nM	
C[C@@H]1CN(C(=O)COc2ccc(Cl)cc2C(=O)NCCN)[C@@H](C)CN1Cc1ccc(F)cc1 [compound 30]	9 nM	
CCCC(C)Nc1cc(Cl)ccc1OCC(=O)N1C[C@@H](C)N(Cc2ccc(F)cc2)C[C@@H]1C (stereo partly drawn) [compound 18]	87 nM	
COC(=O)c1ccc(OC)cc1OCC(=O)N1C[C@@H](C)N(Cc2ccc(F)cc2)C[C@@H]1C [compound 34]	31 nM	
C[C@@H]1CN(C(=O)COc2ccc(Cl)cc2NC(=O)CNC(N)=O)[C@@H](C)CN1Cc1ccc(F)cc1 [compound 27]	2 nM	
O=C(COc1ccc(Cl)cc1)N1CCN(Cc2ccc(F)cc2)C(C(F)(F)F)C1 (stereo not drawn) [compound 37]	148 nM	
CCC1CN(Cc2ccc(F)cc2)CCN1C(=O)COc1ccc(Cl)cc1 (stereo not drawn) [compound 44]	15 nM	
O=C(COc1ccc(Cl)cc1)N1CCN(Cc2ccc(F)cc2)CC12CC2 [compound 46]	74 nM	
CC1CN(Cc2ccc(F)cc2)CCN1C(=O)COc1ccc(Cl)c([N+](=O)[O-])c1 (stereo not drawn) [compound 16]	21 nM	
C[C@@H]1CN(C(=O)COc2ccc3ccc(=O)oc3c2)[C@@H](C)CN1Cc1ccc(F)cc1 [compound 39]	18 nM	

Molecule	Ki [1]	signalling through human CCR1 [2]
COCC(=O)Nc1cc(Cl)ccc1OCC(=O)N1C[C@@H](C)N(Cc2ccc(F)cc2)C[C@@H]1C [compound 22]	3 nM	
CCCC(=O)Nc1cc(Cl)ccc1OCC(=O)N1C[C@@H](C)N(Cc2ccc(F)cc2)C[C@@H]1C [compound 20]	7 nM	
CCC[C@@H]1CN(Cc2ccc(F)cc2)CCN1C(=O)COc1ccc(Cl)cc1 [compound 45]	75 nM	
CC(=O)Nc1ccccc1OCC(=O)N1CCN(Cc2ccc(F)cc2)CC1C (stereo not drawn) [compound 31]	106 nM	
CCN(C)C(C)c1cc(Cl)ccc1OCC(=O)N1C[C@@H](C)N(Cc2ccc(F)cc2)C[C@@H]1C (stereo partly drawn) [compound 28]	18 nM	
C=CC(O)CC1CN(Cc2ccc(F)cc2)CCN1C(=O)COc1ccc(Cl)cc1 (stereo not drawn) [compound 36]	172 nM	
MCP-1: human chemokine that binds human CCR1 with low affinity; a ligand for CCR2		neither ligand is able to signal
C[C@@H]1CN(C(=O)COc2ccc(Cl)cc2CNC(N)=O)[C@@H](C)CN1Cc1ccc(F)cc1 [compound 14]	2 nM	
C[C@@H]1CN(C(=O)COc2ccc(Cl)cc2N2C(=O)c3ccccc3C2=O)[C@@H](C)CN1Cc1ccc(F)cc1 [compound 40]	64 nM	
C[C@@H]1CN(Cc2ccc(F)cc2)[C@@H](CC#N)CN1C(=O)COc1ccc(Cl)cc1 [compound 48]	38 nM	
C[C@@H]1CN(C(=O)COc2ccc(Cl)cc2NS(C)(=O)=O)[C@@H](C)CN1Cc1ccc(F)cc1 [compound 24]	6 nM	
C[C@@H]1CN(C(=O)CC(CN)c2ccc(Cl)cc2)[C@@H](C)CN1Cc1ccc(F)cc1 (stereo partly drawn) [compound 41]	56 nM	
Cc1cc(O)cc(OCC(=O)N2C[C@H](C)N(Cc3ccc(F)cc3)C[C@H]2C)c1 [compound 33]	5 nM	
C[C@@H]1CN(Cc2ccc(F)cc2)[C@@H](CN2CCOCC2)CN1C(=O)COc1ccc(Cl)cc1 [compound 49]	109 nM	
CC(=O)NCC(CC(=O)N1C[C@@H](C)N(Cc2ccc(F)cc2)C[C@@H]1C)c1ccc(Cl)cc1 (stereo partly drawn) [compound 42]	26 nM	
C[C@@H]1CN(C(=O)CC(NS(C)(=O)=O)c2ccc(Cl)cc2)[C@@H](C)CN1Cc1ccc(F)cc1 (stereo partly drawn) [compound 43]	32 nM	
C[C@@H]1CN(C(=O)COc2ccc(Cl)cc2NC(=O)CN)[C@@H](C)CN1Cc1ccc(F)cc1 [compound 26]	1 nM	
B1		neither ligand is able to signal

Reference: patent US20080119471A1, “Piperazine urea derivatives for the treatment of endometriosis” (priority 2004, published 2008)
